One data set addresses T1, Cytochrome P450 1A2 (Homo sapiens, UniProt P05177).
T1 sequence (P05177 whole entry): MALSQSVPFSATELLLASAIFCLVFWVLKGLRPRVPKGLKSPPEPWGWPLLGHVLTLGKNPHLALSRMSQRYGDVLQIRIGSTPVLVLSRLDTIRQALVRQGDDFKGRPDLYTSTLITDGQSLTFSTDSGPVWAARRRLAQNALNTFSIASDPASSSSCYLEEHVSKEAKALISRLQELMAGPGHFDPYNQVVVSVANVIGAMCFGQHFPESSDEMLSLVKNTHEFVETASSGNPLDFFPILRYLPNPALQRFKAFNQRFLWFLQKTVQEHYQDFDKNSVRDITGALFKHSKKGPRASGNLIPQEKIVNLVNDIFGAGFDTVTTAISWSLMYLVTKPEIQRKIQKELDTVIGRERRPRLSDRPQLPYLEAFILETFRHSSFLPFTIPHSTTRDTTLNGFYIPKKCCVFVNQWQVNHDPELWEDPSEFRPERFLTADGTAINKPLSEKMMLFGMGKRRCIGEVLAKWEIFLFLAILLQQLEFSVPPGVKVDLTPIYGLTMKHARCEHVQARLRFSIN
In words: Inhibition of CYP1A2 in human liver microsomes using phenacetin as substrate preincubated for 10 mins in presence of NADPH generating system followed by substrate addition and measured after 3 mins by LC-MS/MS analysis. In kind it is ADME. On the technique in general: Liver microsomes are a subcellular fraction often used to study metabolism.

The nature of data set [1]: Drug metabolism in Sprague-Dawley rat liver microsomes assessed as 3,3-dideuterio-N-[2-(2-dimethylaminoethylamino)-4-methoxy-5-[[4-[1-(trideuteriomethyl)indol-3-yl]pyrimidin-2-yl]amino]phenyl]prop-2-enamide metabolite formation preincubated for 10 mins under shaking condition followed by NADPH generating system addition and measured up to 60 mins by LC-MS/MS analysis. The class given is ADME, Microsome. The conditions noted are these: 1 h, time <=70 min.

For another data set, the target named is Cytochrome P450 2D6 (Homo sapiens, UniProt P10635). Nature of the data set: Inhibition of CYP2D6 in human liver microsomes using dextromethorphan as substrate preincubated for 10 mins in presence of NADPH generating system followed by substrate addition and measured after 20 mins by LC-MS/MS analysis. The class given is ADME.
Cytochrome P450 2D6, sequence (P10635 whole entry): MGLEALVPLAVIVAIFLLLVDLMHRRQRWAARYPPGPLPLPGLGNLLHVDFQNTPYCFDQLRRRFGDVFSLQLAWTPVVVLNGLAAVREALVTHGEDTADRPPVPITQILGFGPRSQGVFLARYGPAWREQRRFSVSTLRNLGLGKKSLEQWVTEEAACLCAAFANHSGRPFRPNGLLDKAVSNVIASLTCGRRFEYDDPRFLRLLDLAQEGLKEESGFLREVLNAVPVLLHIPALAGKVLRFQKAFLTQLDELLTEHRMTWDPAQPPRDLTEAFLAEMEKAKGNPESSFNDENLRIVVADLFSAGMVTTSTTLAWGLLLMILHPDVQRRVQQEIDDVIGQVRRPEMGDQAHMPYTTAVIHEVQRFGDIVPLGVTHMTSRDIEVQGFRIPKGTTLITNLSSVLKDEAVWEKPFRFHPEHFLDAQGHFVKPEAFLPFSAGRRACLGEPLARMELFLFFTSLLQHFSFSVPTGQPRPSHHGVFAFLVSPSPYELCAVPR
A short description of data set [2]: Drug metabolism in Sprague-Dawley rat liver microsomes assessed as 3,3-dideuterio-N-[4-methoxy-2-(methylamino)-5-[[4-[1-(trideuteriomethyl)indol-3-yl]pyrimidin-2-yl]amino]phenyl]prop-2-enamide metabolite formation preincubated for 10 mins under shaking condition followed by NADPH generating system addition and measured up to 60 mins by LC-MS/MS analysis. The class given is ADME, Microsome. The conditions noted are these: 1 h, time <=70 min.

A short description of data set [3]: Intrinsic clearance in CD1 mouse liver microsomes preincubated for 10 mins under shaking condition followed by NADPH generating system addition and measured up to 60 mins by LC-MS/MS analysis. In kind it is ADME, Microsome. Particulars: 1 h, time <=70 min.
Another data set has as its target T2, Cytochrome P450 2C8 (Homo sapiens, UniProt P10632).
T2 sequence (P10632 whole entry): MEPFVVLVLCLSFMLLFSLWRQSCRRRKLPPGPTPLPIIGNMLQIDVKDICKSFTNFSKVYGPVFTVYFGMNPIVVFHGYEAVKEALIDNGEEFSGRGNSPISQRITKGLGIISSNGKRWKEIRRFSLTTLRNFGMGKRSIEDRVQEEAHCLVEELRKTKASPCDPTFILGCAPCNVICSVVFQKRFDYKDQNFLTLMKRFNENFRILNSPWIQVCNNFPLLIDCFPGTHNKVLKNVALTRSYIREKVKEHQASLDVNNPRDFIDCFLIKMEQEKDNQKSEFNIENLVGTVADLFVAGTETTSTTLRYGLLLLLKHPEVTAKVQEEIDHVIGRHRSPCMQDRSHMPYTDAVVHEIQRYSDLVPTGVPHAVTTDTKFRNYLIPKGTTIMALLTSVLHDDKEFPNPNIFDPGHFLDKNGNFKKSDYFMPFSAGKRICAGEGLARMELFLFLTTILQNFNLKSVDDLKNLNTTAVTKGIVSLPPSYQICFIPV
In words: Inhibition of CYP2C8 in human liver microsomes using amodiaquine as substrate preincubated for 10 mins in presence of NADPH generating system followed by substrate addition and measured after 10 mins by LC-MS/MS analysis. The class given is ADME.

Data set [4] is described as follows: Oral bioavailability in Sprague-Dawley rat at 6 mg/kg/day, IG administered for 7 consecutive days by LC-MS/MS analysis. The conditions noted are these: in vivo, time 7 day. In kind it is ADME, organism-based.
Data set [5] can be described thus: Toxicity in Balb/c nude mouse xenografted with human NCI-H1975 cells harboring EGFR L858R/T790M mutant assessed as change in body weight at 3 to 5 mg/kg, po QD administered via gavage for 24 days and measured twice weekly. The class given is organism-based. The conditions noted are these: in vivo, 576 h, dose 3-5 mg/kg, time 24 day. For orientation: Xenograft models place foreign cells or tissue in a host animal.

Data set [6] is described as follows: Drug metabolism in CD1 mouse liver microsomes assessed as 3,3-dideuterio-N-[2-(2-dimethylaminoethylamino)-4-methoxy-5-[[4-[1-(trideuteriomethyl)indol-3-yl]pyrimidin-2-yl]amino]phenyl]prop-2-enamide metabolite formation preincubated for 10 mins under shaking condition followed by NADPH generating system addition and measured up to 60 mins by LC-MS/MS analysis. In kind it is ADME, Microsome. Particulars: 1 h, time <=70 min.

Data set [7] is described as follows: Tmax in Sprague-Dawley rat at 6 mg/kg/day, IG administered for 7 consecutive days by LC-MS/MS analysis. The class given is ADME, organism-based. The conditions noted are these: in vivo, po, time 7 day.
Data set [8] in a line: Intrinsic clearance in Beagle dog liver microsomes preincubated for 10 mins under shaking condition followed by NADPH generating system addition and measured up to 60 mins by LC-MS/MS analysis. In kind it is ADME, Canis lupus familiaris, Microsome. The conditions noted are these: 1 h, time <=70 min.
A short description of data set [9]: Intrinsic clearance in cynomolgus monkey liver microsomes preincubated for 10 mins under shaking condition followed by NADPH generating system addition and measured up to 60 mins by LC-MS/MS analysis. In kind it is ADME, Macaca fascicularis, Microsome. The conditions noted are these: 1 h, time <=70 min.
The nature of data set [10]: Drug metabolism in cynomolgus monkey liver microsomes assessed as 3,3-dideuterio-N-[2-(2-dimethylaminoethylamino)-4-methoxy-5-[[4-[1-(trideuteriomethyl)indol-3-yl]pyrimidin-2-yl]amino]phenyl]prop-2-enamide metabolite formation preincubated for 10 mins under shaking condition followed by NADPH generating system addition and measured up to 60 mins by LC-MS/MS analysis. In kind it is ADME, Macaca fascicularis, Microsome. Particulars: 1 h, time <=70 min.

For a further data set, the target named is T3, Cytochrome P450 2B6 (Homo sapiens, UniProt P20813).
T3 sequence (P20813 whole entry): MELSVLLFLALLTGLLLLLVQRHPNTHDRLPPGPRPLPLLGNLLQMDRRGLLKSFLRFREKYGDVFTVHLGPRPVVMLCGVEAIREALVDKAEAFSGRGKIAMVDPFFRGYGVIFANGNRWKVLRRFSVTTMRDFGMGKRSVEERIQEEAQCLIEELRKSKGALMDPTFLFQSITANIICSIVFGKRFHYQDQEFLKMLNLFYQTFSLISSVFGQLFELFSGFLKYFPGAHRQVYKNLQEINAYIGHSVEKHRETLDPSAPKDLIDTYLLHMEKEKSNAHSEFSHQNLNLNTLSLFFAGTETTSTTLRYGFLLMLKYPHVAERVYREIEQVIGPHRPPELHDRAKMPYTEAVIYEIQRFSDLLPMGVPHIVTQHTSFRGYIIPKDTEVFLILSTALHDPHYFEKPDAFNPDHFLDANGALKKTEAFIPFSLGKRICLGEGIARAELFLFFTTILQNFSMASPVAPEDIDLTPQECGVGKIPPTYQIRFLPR
In words: Inhibition of CYP2B6 in human liver microsomes using bupropion as substrate preincubated for 10 mins in presence of NADPH generating system followed by substrate addition and measured after 10 mins by LC-MS/MS analysis. In kind it is ADME.

For orientation: IC50 means the concentration needed to halve the response being measured. One may read the bioavailability as the share of a dose that reaches the circulation, judged against a reference dose that is usually intravenous. The term Tmax denotes the time from dosing to the highest level.

For `CS(=O)(=O)O.[2H]C([2H])=CC(=O)Nc1cc(Nc2nccc(-c3cn(C([2H])([2H])[2H])c4ccccc34)n2)c(OC)cc1N(C)CCN(C)C`, the IC50 at Cytochrome P450 1A2 is 39.8 µM; at Cytochrome P450 2D6 it was above 50 µM; at Cytochrome P450 2C8 it was 29.3 µM; on Cytochrome P450 2B6, above 50 µM. In addition, the Drug metabolism entry in data set [1], in data set [2], in data set [6] and in data set [10] was “Metabolite_Detected” throughout. Besides, the CLint in data set [3] is 58.6 µL/min/mg; in [8] it was 61.3 µL/min/mg; in data set [9], 54.2 µL/min/mg. In [4], this compound showed a bioavailability of 29.6%. Further, the Activity result in data set [5] is “Non-Toxic”. For the same compound, the Tmax in data set [7] is 4.67 h.

The values above are taken from ChEMBL document CHEMBL4732150 (J Med Chem, 2021).
